Assay results: patent publication US12691070B2, “Cationic lipids and preparation method thereof” (RiboX Therapeutics HK Limited, priority 2023, dated 2026)

Experiments:
RAW 264.7 cells [1] = experiment: In vitro expression of firefly-luciferase, RAW 264.7; type: cell-based; conditions: cirRNA (SEQ ID NO: 1) LNPs; firefly-luciferase luminescence; RAW 264.7 cells
Method: (§1) RAW 264.7 and Hep G2 cells were transfected with 100 ng/mL of RNA-LNPs encoding for firefly-luciferase. At 72 hours post transfection, the cells were washed and lysed. The luciferase expression was determined in the cell lysates with the luciferase assay reagent kit (Promega), according to the kit protocol, luciferase activity was measured by a luminometer.

[2] = LNP size and polydispersity index (PDI) by dynamic light scattering; type: physicochemical; conditions: LNP with cirRNA (SEQ ID NO: 1); for Size: in nm (unit assumed)
Method: (§2) Ionizable lipid, DSPC, Cholesterol and DMG-PEG 2000 were mixed at a molar ratio of 50:10:38.5:1.5 in absolute ethanol. Circular RNA and linear mRNA payloads were suspended in 25 mM Acetate Buffer (pH 4.5). To form LNPs, three volumes of luciferase encoding RNA, in the form of cirRNA (SEQ ID NO:1) and mRNA (SEQ ID NO:2) respectively, were mixed with one volume of lipids in ethanol solution by microfluidic mixing with the Nanoassemblr Ignite (Precision Nanosystems) at a flow rate of 12 ml/min. The molar ratio of ionizable lipid to ribonucleotide was 15 or 6. The final lipid concentration in solution ranged from 1.5 mM to 6 mM. After encapsulation, the particles were dialyzed twice against PBS.
(§3) The LNP size and polydispersity index (PDI), determined by dynamic light scattering (DLS), and zeta potential were measured by a Zetasizer machine (Malvern). RNA concentration and encapsulation efficacy were analyzed by the Quant-IT Ribogreen kit by calculating the percentage encapsulation at 100%−(RNA-LNPs/RNA-LNPs with Triton X-100).

Hep G2 cells [3] = experiment: In vitro toxicity (CellTiter-Glo cell viability), Hep G2; type: cell-based; conditions: cirRNA (SEQ ID NO: 1) LNPs; Hep G2 cells;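 also: percent of untreated cells luminescence signal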
Method: (§4) RAW 264.7 and Hep G2 cells were transfected with 1 μg/mL RNA-LNPs. At 72 hours post transfection, cell viability was determined with the CellTiter-Glo® reagent kit, according to the kit protocol, measured by a luminometer.
(§5) The cell viability was calculated according to the following formula: […]

Hep G2 cells [4] = experiment: In vitro expression of firefly-luciferase, Hep G2; type: cell-based; conditions: cirRNA (SEQ ID NO: 1) LNPs; firefly-luciferase luminescence; Hep G2 cells
Method: as §1

[5] = RNA encapsulation efficacy by Quant-IT Ribogreen kit; type: physicochemical; conditions: LNP with cirRNA (SEQ ID NO: 1)
Method: as §2, §3

[6] = LNP zeta potential (Zetasizer); type: physicochemical; conditions: LNP with cirRNA (SEQ ID NO: 1)
Method: as §2, §3

RAW 264.7 cells [7] = experiment: In vitro toxicity (CellTiter-Glo cell viability), RAW 264.7; type: cell-based; conditions: cirRNA (SEQ ID NO: 1) LNPs; RAW 264.7 cells;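 also: percent of untreated cells luminescence signal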
Method: as §4, §5

BALB/C mice = experiment: In vivo expression, whole-body luminescence (IVIS); conditions: cirRNA (SEQ ID NO: 1) LNPs, BALB/C mice
Method: 6-8 week old, female BALB/C mice were injected with 0.05 mg*kg-1 of RNA-LNPs encoding for firefly-luciferase by intravenous injection. At 6 hours post injection, animals were intraperitoneally injected with 15 mg/ml of Luciferin substrate and whole-body luminescence was determined by a bioluminescent in vivo imaging system (IVIS).

Compound: CCCCC/C=C\C/C=C\CCCCCCCCN(CCCCCCCC(=O)OC(CCCCCCCC)CCCCCCCC)CCOC(=O)NCCCN(C)C [Lipid 130, heptadecan-9-yl 2-methyl-11-((9Z,12Z)-octadeca-9,12-dien-1-yl)-7-oxo-8-oxa-2,6,11-triazanonadecan-19-oate]
- In vitro Expression RAW (RAW 264.7 cells [1]): 6.92E+05
- PDI [2]: 0.1685
- Size [2]: 145.8
- In vitro Viability HepG2 (Hep G2 cells [3]): 91%
- In vitro Expression HepG2 (Hep G2 cells [4]): 5.31E+06
- Encapsulation Efficiency % [5]: 99%
- Zeta (mV) [6]: 11.37 mV
- In vitro Viability RAW (RAW 264.7 cells [7]): 90%
- In vivo Expression (Whole Body) (BALB/C mice): 1.08E+07

Compound: CCCCC/C=C\C/C=C\CCCCCCCCN(CCCCCC(=O)OCC(CCCCCCCC)CCCCCCCCCC)CCOC(=O)NCCN1CCOCC1 (stereo not drawn) [Lipid 79, 2-octyldodecyl 6-((2-(((2-morpholinoethyl)carbamoyl)oxy)ethyl)((9Z,12Z)-octadeca-9,12-dien-1-yl)amino)hexanoate]
- In vitro Expression RAW (RAW 264.7 cells [1]): 4.60E+01
- PDI [2]: 0.2181
- Size [2]: 99.18
- In vitro Viability HepG2 (Hep G2 cells [3]): 104%
- In vitro Expression HepG2 (Hep G2 cells [4]): 3.94E+03
- Encapsulation Efficiency % [5]: 93%
- Zeta (mV) [6]: −2.908 mV
- In vitro Viability RAW (RAW 264.7 cells [7]): 104%
- In vivo Expression (Whole Body) (BALB/C mice): 4.70E+07

Compound: CCCCCCCCCC(=O)OCCCCCCCN(CCCCCCCCOC(=O)C(CCCCCC)CCCCCCCC)CCOC(=O)NCc1ncc[nH]1 (stereo not drawn) [Lipid 198]
- In vitro Expression RAW (RAW 264.7 cells [1]): 8.39E+04
- PDI [2]: 0.2199
- Size [2]: 64.1
- In vitro Viability HepG2 (Hep G2 cells [3]): 104%
- In vitro Expression HepG2 (Hep G2 cells [4]): 2.19E+04
- Encapsulation Efficiency % [5]: 94%
- Zeta (mV) [6]: −3.471 mV
- In vitro Viability RAW (RAW 264.7 cells [7]): 90%
- In vivo Expression (Whole Body) (BALB/C mice): 9.90E+06

Compound: CCCCCCCCCCCOC(=O)CCCCCN(CCCCCCCC(=O)OC(CCCCCCCC)CCCCCCCC)CCOC(=O)NCCCN(C)C [Lipid 162]
- In vitro Expression RAW (RAW 264.7 cells [1]): 3.76E+03
- PDI [2]: 0.3875
- Size [2]: 86.23
- In vitro Viability HepG2 (Hep G2 cells [3]): 83%
- In vitro Expression HepG2 (Hep G2 cells [4]): 4.27E+05
- Encapsulation Efficiency % [5]: 76%
- Zeta (mV) [6]: 14.91 mV
- In vitro Viability RAW (RAW 264.7 cells [7]): 86%
- In vivo Expression (Whole Body) (BALB/C mice): 1.01E+06

Compound: CCCCCCCCCCCOC(=O)CCCCCN(CCCCCCCCOC(=O)C(CCCCCC)CCCCCCCC)CCOC(=O)NCCN(C)C (stereo not drawn) [Lipid 220]
- In vitro Expression RAW (RAW 264.7 cells [1]): 1.52E+04
- PDI [2]: 0.304
- Size [2]: 112.7
- In vitro Viability HepG2 (Hep G2 cells [3]): 89%
- In vitro Expression HepG2 (Hep G2 cells [4]): 3.55E+06
- Encapsulation Efficiency % [5]: 96%
- Zeta (mV) [6]: 10.78 mV
- In vitro Viability RAW (RAW 264.7 cells [7]): 98%
- In vivo Expression (Whole Body) (BALB/C mice): 1.45E+07

Compound: CCCCCCCCC(CCCCCC)C(=O)OCCCCCCCCN(CCCCCCCCCCC(=O)OCCCCCC)CCOC(=O)NCCN1CCN(C)CC1 (stereo not drawn) [Lipid 46, hexyl 11-((8-((2-hexyldecanoyl)oxy)octyl)(2-(((2-(4-methylpiperazin-1-yl)ethyl)carbamoyl)oxy)ethyl)amino)undecanoate]
- In vitro Expression RAW (RAW 264.7 cells [1]): 3.51E+02
- PDI [2]: 0.088
- Size [2]: 137.6
- In vitro Viability HepG2 (Hep G2 cells [3]): 102%
- In vitro Expression HepG2 (Hep G2 cells [4]): 3.70E+01
- Encapsulation Efficiency % [5]: 100%
- Zeta (mV) [6]: 3.255 mV
- In vitro Viability RAW (RAW 264.7 cells [7]): 99%
- In vivo Expression (Whole Body) (BALB/C mice): 1.92E+06

Compound: CCCCCCCCCCC(CCCCCCCC)COC(=O)CCCCCN(CCCCCC(=O)OCC(CCCCCCCC)CCCCCCCCCC)CCCOC(=O)NCCN1CCC1 (stereo not drawn) [Lipid 372]
- In vitro Expression RAW (RAW 264.7 cells [1]): 3.30E+02
- PDI [2]: 0.2663
- Size [2]: 118.2
- In vitro Viability HepG2 (Hep G2 cells [3]): 42%
- In vitro Expression HepG2 (Hep G2 cells [4]): 4.98E+03
- Encapsulation Efficiency % [5]: 92%
- Zeta (mV) [6]: 4.685 mV
- In vitro Viability RAW (RAW 264.7 cells [7]): 57%
- In vivo Expression (Whole Body) (BALB/C mice): 1.10E+06

Compound: CCCCC/C=C\C/C=C\CCCCCCCCN(CCCCCCCC/C=C\C/C=C\CCCCC)CCOC(=O)NCCN(C)C [Lipid 41, 2-(di((9Z,12Z)-octadeca-9,12-dien-1-yl)amino)ethyl (2-(dimethylamino)ethyl)carbamate]
- In vitro Expression RAW (RAW 264.7 cells [1]): 1.12E+05
- PDI [2]: 0.163
- Size [2]: 186
- In vitro Viability HepG2 (Hep G2 cells [3]): 89%
- In vitro Expression HepG2 (Hep G2 cells [4]): 2.77E+01
- Encapsulation Efficiency % [5]: 91%
- Zeta (mV) [6]: 5.74 mV
- In vitro Viability RAW (RAW 264.7 cells [7]): 70%
- In vivo Expression (Whole Body) (BALB/C mice): 4.69E+04

Compound: CCCCCCCCC(CCCCCC)C(=O)OCCCCCCCCN(CCCCCCCCOC(=O)C(CCCCCC)CCCCCCCC)CCCOC(=O)NCCCN(C)C (stereo not drawn) [Lipid 378]
- In vitro Expression RAW (RAW 264.7 cells [1]): 6.58E+05
- PDI [2]: 0.2637
- Size [2]: 130.6
- In vitro Viability HepG2 (Hep G2 cells [3]): 26%
- In vitro Expression HepG2 (Hep G2 cells [4]): 3.39E+06
- Encapsulation Efficiency % [5]: 93%
- Zeta (mV) [6]: 6.729 mV
- In vitro Viability RAW (RAW 264.7 cells [7]): 75%
- In vivo Expression (Whole Body) (BALB/C mice): 8.79E+06

Compound: CCCCC/C=C\CCOC(=O)CCCCCN(CCCCCCCCOC(=O)C(CCCCCC)CCCCCCCC)CCOC(=O)NCc1ncc[nH]1 (stereo not drawn) [Lipid 185]
- In vitro Expression RAW (RAW 264.7 cells [1]): 5.29E+04
- PDI [2]: 0.102
- Size [2]: 69.89
- In vitro Viability HepG2 (Hep G2 cells [3]): 90%
- In vitro Expression HepG2 (Hep G2 cells [4]): 9.12E+03
- Encapsulation Efficiency % [5]: 88%
- Zeta (mV) [6]: −1.137 mV
- In vitro Viability RAW (RAW 264.7 cells [7]): 85%
- In vivo Expression (Whole Body) (BALB/C mice): 1.22E+08

Compound: CCCCCCCC/C=C\CCCCCCCCN(CCCCCCCCOC(=O)C(CCCCCC)CCCCCCCC)CCOC(=O)NCCCn1ccnc1 (stereo not drawn) [Lipid 217]
- In vitro Expression RAW (RAW 264.7 cells [1]): 8.05E+03
- PDI [2]: 0.1439
- Size [2]: 60.05
- In vitro Viability HepG2 (Hep G2 cells [3]): 82%
- In vitro Expression HepG2 (Hep G2 cells [4]): 2.45E+04
- Encapsulation Efficiency % [5]: 94%
- Zeta (mV) [6]: 1.061 mV
- In vitro Viability RAW (RAW 264.7 cells [7]): 90%
- In vivo Expression (Whole Body) (BALB/C mice): 7.35E+06

Compound: CCCCCCCCCCC(CCCCCCCC)COC(=O)CCCCCN(CCCCCC(=O)OCC(CCCCCCCC)CCCCCCCCCC)CCCOC(=O)NCCN1CCCCCC1 (stereo not drawn) [Lipid 373]
- In vitro Expression RAW (RAW 264.7 cells [1]): 2.32E+04
- PDI [2]: 0.2353
- Size [2]: 92.65
- In vitro Viability HepG2 (Hep G2 cells [3]): 63%
- In vitro Expression HepG2 (Hep G2 cells [4]): 5.98E+04
- Encapsulation Efficiency % [5]: 92%
- Zeta (mV) [6]: −3.695 mV
- In vitro Viability RAW (RAW 264.7 cells [7]): 91%
- In vivo Expression (Whole Body) (BALB/C mice): 5.62E+06
